Results: article PMC6404402, “Design of indole- and MCR-based macrocycles as p53-MDM2 antagonists” (Beilstein Journal of Organic Chemistry, 2019)
“And” between values parts separate entries of the source, which are not always exact repeats. Equal entries are not always repeated.

Assays:
[1] = Ugi macrocyclisation (intramolecular U-4C-3CR type): alpha,omega-amino acid + indole-3-carboxaldehyde (imine formation, MW 120 °C, 1 h), then tert-butyl isocyanide (MW 120 °C, 1 h); ring bond formed = amide between carboxyl C and amine N (via Mumm acyl transfer); details: the molecule shown is the open-chain precursor, MeOH, 100.0 mM, 2.0 h
[2] = target: 15N-labeled MDM2 (N-terminal domain of human MDM2, residues 1-118) (Homo sapiens, UniProt Q00987); assay: 1H,15N HSQC NMR titration of 15N-labeled MDM2; type: binding; details: 1H,15N HSQC titration, 7–9 ligand/protein ratios 0 to 5; 0.20–0.35 mM 15N MDM2; 50 mM phosphate pH 7.4, 150 mM NaCl, 5 mM DTT, 10% D2O; 300K; 50 mM ligand stock in DMSO; weighted mean of KD's of most perturbed residues in fast chemical exchange
Chain of 15N-labeled MDM2 (N-terminal domain of human MDM2, residues 1-118) (Q00987 1-118): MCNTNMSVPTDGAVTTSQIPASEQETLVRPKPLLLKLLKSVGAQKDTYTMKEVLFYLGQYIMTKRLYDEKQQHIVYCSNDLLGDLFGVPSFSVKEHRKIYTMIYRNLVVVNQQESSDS
Description: Protein expression and purification
Fragment of the N-terminal domain of human MDM2 (residues 1-118) was cloned into the pET-20 (Novagen) and expressed in E. coli strain BL21-CodonPlus(DE3)-RIL as described previously.1 In brief, cells were cultured at 37 °C. Protein expression was induced with 1 mM IPTG at OD600 of 0.8 and cultured for additional 5 h at 37 °C. Cells were collected by centrifugation and lysed by sonication. Inclusion bodies were collected by centrifugation, washed with PBS containing 0.05% Triton-X100 and subsequently solubilized in 6 M guanidine hydrochloride in 100 mM Tris-HCl, pH 8.0, containing 1 mM EDTA and 10 mM β-mercaptoethanol. The protein was dialyzed against 4 M guanidine hydrochloride pH 3.5 supplemented with 10 mM β-mercaptoethanol. Following, the protein was refolded by dropwise addition into 10 mM Tris-HCl, pH 7.0, containing 1 mM EDTA and 10 mM β-mercaptoethanol and slow mixing overnight at 4 °C. Ammonium sulfate was added to the final concentration of 1.5 M and the refolded protein was recovered on Butyl Sepharose 4 Fast Flow (GE Healthcare). […]
Uniform 15N isotope labeling was achieved by expression of the protein in the M9 minimal media containing 15NH4Cl as the sole nitrogen source. […] Water suppression was carried out using the WATERGATE sequence.2 All the spectra were recorded at 300K using a Bruker Avance 600 MHz spectrometer with the Cryo-Platform.

## O=C(O)COCC(=O)NCCCCCCN=Cc1c[nH]c2ccccc12
[1]; 13-membered ring
  ring closure, isolated yield: 51%

## O=C(O)COCC(=O)NCCCCN=Cc1c[nH]c2ccccc12 [2a]
[1]; 11-membered ring
  ring closure, isolated yield: 40%

## O=C(O)COCC(=O)NCCCCCN=Cc1c[nH]c2ccccc12 [2b]
[1]; 12-membered ring
  ring closure, isolated yield: 35%

## O=C(O)COCC(=O)NCCCCCCCCN=Cc1c[nH]c2ccccc12 [2d]
[1]; 15-membered ring
  ring closure, isolated yield: 33%

## O=C(O)COCC(=O)NCCCCCCCCCCN=Cc1c[nH]c2ccccc12 [2e]
[1]; 17-membered ring
  ring closure, isolated yield: 31%

## O=C(O)COCC(=O)NCCCCCCCCCCCCN=Cc1c[nH]c2ccccc12 [2f]
[1]; 19-membered ring
  ring closure, isolated yield: 59%

## CC(C)(C)NC(=O)C(c1c[nH]c2cc(Cl)ccc12)N1CCCCCCNC(=O)COCC1=O (centres unmarked) [2g]
[2]
  Kd: 9 µM and 8.9 µM

## O=C(O)COCC(=O)NCCCCCCN=Cc1c[nH]c2cc(Cl)ccc12 [2g]
[1]; 13-membered ring
  ring closure, isolated yield: 35%

## O=C(O)COCC(=O)NCCCCCCCCN=Cc1c[nH]c2cc(Cl)ccc12 [2h]
[1]; 15-membered ring
  ring closure, isolated yield: 25%

## O=C(O)COCC(=O)NCCCCCCCCCCN=Cc1c[nH]c2cc(Cl)ccc12 [2i]
[1]; 17-membered ring
  ring closure, isolated yield: 51%

## O=C(O)COCC(=O)NCCCCCCCCCCCCN=Cc1c[nH]c2cc(Cl)ccc12 [2j]
[1]; 19-membered ring
  ring closure, isolated yield: 60%

## O=C(O)CSCC(=O)NCCCCN=Cc1c[nH]c2cc(Cl)ccc12 [2k]
[1]; 11-membered ring
  ring closure, isolated yield: 29%

## O=C(O)CSCC(=O)NCCCCCN=Cc1c[nH]c2cc(Cl)ccc12 [2l]
[1]; 12-membered ring
  ring closure, isolated yield: 35%

## O=C(O)CSCC(=O)NCCCCCCN=Cc1c[nH]c2cc(Cl)ccc12 [2m]
[1]; 13-membered ring
  ring closure, isolated yield: 39%

## O=C(O)CSCC(=O)NCCCCCCCCN=Cc1c[nH]c2cc(Cl)ccc12 [2n]
[1]; 15-membered ring
  ring closure, isolated yield: 39%

## O=C(O)CSCC(=O)NCCCCCCCCCCN=Cc1c[nH]c2cc(Cl)ccc12 [2o]
[1]; 17-membered ring
  ring closure, isolated yield: 41%

## O=C(O)CSCC(=O)NCCCCCCCCCCCCN=Cc1c[nH]c2cc(Cl)ccc12 [2p]
[1]; 19-membered ring
  ring closure, isolated yield: 52%
